Experimental data taken from patent publication US4260630A, “Skin diseases” (priority 1977, dated 1981).

Tests used:
[1] = tested on: cutaneous tissue; settings: in vivo; cited from earlier work
[2] = tested on: DNA; settings: cited from earlier work
[3] = tested on: Saccharomyces cerevisiae; assay: Repair of photoinduced lesions in yeast (repair mutants, agar holding); type: cell-based; settings: wild-type cells
Source text: Biophys. Acta, 395, 393-404.
Consequently, it appears that the excision repair pathway in wild type and rad9-4 cells is essential in AHR for both compounds.

[4] = Comparison of activity with compounds of analogous structure; settings: comparison with the compounds of the invention
Source text: V. In order to compare the activity of the compounds of the invention with compounds having an analogous structure

[5] = tested on: Saccharomyces cerevisiae; assay: Induction of nuclear back mutations (his- to His+) in yeast; settings: vs 3-CPs or angelicin plus 365 nm light
Method: A wild-type strain 211-1aM (29) of Saccharomyces cerivisiae was used, and the following mutants derived from it: S24-12c rad2-20 deficient in excision repair and S25-13b rad9-4 likely to be blocked in a recombinational repair pathway; a double mutant S 2057NL-24 rad2-20 -rad9-4 clone B was obtained by tetrad analysis of a heterozygote [formula]
The media and culture conditions used were as described in D. Averbeck, E. Moustacchi, (1975) Biochim. Biophys. Acta, 395, 393-404.
10^6 cells/ml in saline (0.9% NaCl) were treated for 30 minutes with the drugs at a final concentration of 10 μg/ml and 1.2% ethanol present.
A Philips HPW 125 culot Edison high pressure mercury lamp was used with maximal output at the wavelength 365 nm. The irradiation dose measured by actinometry was 10 J/m^2 per sec., using the following set up: 10 ml of actinometer solution (or the cell suspension, usually 1×10^6 cells/ml), stirred continuously by a magnetic stirrer, were irradiated at room temperature in an open Petri dish of 10 cm diameter at a distance of 10 cm from the center of the light bulb which was mounted horizontally. A 2 mm thick pyrex glass sheet (20×25 cm) was placed in the center of the light beam to cut out UV light of wavelength below 340 nm. […]

[6] = tested on: skin of homozygote albino mice strain XVII nc/Z; assay: Chronic topical application on the ears of mice plus 365 nm UV irradiation (tumors, skin reactions); type: in vivo
Method: The experiments were effected on groups of 40 mice, male and female.
After 115 topical applications of psoralen, followed each time by 10 minutes of irradiation (cumulative doses of 2.07×10^6 J/m^2), 100% of the animals developed a tumor; 50% having tumors on two ears.
3-CPs was also tested intraperitoneally (36 injections of 0.4 mg each over a period of 7 weeks).
In all these experiments the U.V. lamp was of the type of HPW 125 W, manufactured by Philips.

[7] = 115 topical applications, cumulative doses 2.07×10^6 J/m^2

## 3,4-dibenzo-5,8-dimethylpsoralen
[1]
  photosensitizing activity: inactive or to induce very weak photosensitivity

## Cc1cc2cc3c(C)c(C)c(=O)oc3c(C)c2o1 [3,4,5',8-tetramethylpsoralen]
[1]
  photosensitizing activity: inactive or to induce very weak photosensitivity

## Cc1cc2cc3c4c(c(=O)oc3c(C)c2o1)CCCC4 [3,4-cyclohexeno-5',8-dimethylpsoralen]
[1]
  photosensitizing activity: inactive or to induce very weak photosensitivity

## Cc1cc2cc3cc(C)c(=O)oc3c(C)c2o1 [3,5',8-trimethylpsoralen]
[1]
  photosensitizing activity: inactive or to induce very weak photosensitivity

## Cc1cc2cc3ccoc3cc2oc1=O [3-methylpsoralen]
[1]
  photosensitizing activity: inactive or to induce very weak photosensitivity

## CCCCc1c(C)c2cc3cc(C)oc3c(C)c2oc1=O [3-n-butyl-4,5',8-trimethylpsoralen]
[1]
  photosensitizing activity: inactive or to induce very weak photosensitivity

## Cc1cc2cc3c(C)cc(=O)oc3c(C)c2o1 [4,5',8-trimethylpsoralen]
[2]; in vitro
  reactivity with DNA in vitro relative to 8-MOP: about 12 times more reactive

## O=c1ccc2ccc3occc3c2o1 [angelicin]
[3]
  kinetics of agar holding recovery (AHR): same kinetics of AHR
[2]
  binding to DNA and RNA: bind equally well to DNA and RNA

## CC(C)(C)OC(=O)c1cc2cc3ccoc3cc2oc1=O [psoralen 3-t-butylcarboxylate]
[4]
  activity: inactive

## O=c1ccc2cc3ccoc3cc2o1 [psoralen]
[1]
  photosensitizing activity: most effective photo-sensitizers
[5]
  effectiveness in inducing nuclear back mutations (his- to His+) relative to monofunctional furocoumarins or 254 nm UV alone: at least 10 fold
[6]; 24 applications, cumulative dose 4.5×10^5 J/m^2
  animals developing a tumor on ears: 3%
[6]; [7]
  animals developing a tumor on ears: 100%
  animals having tumors on two ears: 50%
[6]; chronic topical, two ears, 365 nm UV
  cutaneous reactions: significant cutaneous reactions, such as an erythema, followed by intensive chronic inflammation even followed by necrosis
[6]; mouse, in vivo
  dose dependence of tumor development on ears: dose dependent
[3]
  kinetics of agar holding recovery (AHR): same kinetics of AHR
